Results reported in ChEMBL document CHEMBL1201861, “Genomics of Drug Sensitity in Cancer screening data, Wellcome Trust Sanger Institute”.

Key:
Experiment in all cases: cells
Type in all cases: functional, cell-based, Homo sapiens
[1] = system: COLO-800; conditions: Homo sapiens, COLO-800;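 also: growth inhibition of COLO-800 cells, read out with a cell viability assay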
Description: SANGER: Inhibition of human COLO-800 cell growth in a cell viability assay.

[2] = system: COLO-829; conditions: Homo sapiens, COLO-829
Description: SANGER: Inhibition of human COLO-829 cell growth in a cell viability assay.

[3] = system: CTB-1; conditions: Homo sapiens, CTB-1
Description: SANGER: Inhibition of human CTB-1 cell growth in a cell viability assay.

[4] = system: D-247MG; conditions: Homo sapiens, D-247MG
Description: SANGER: Inhibition of human D-247MG cell growth in a cell viability assay.

[5] = system: DOHH-2; conditions: Homo sapiens, DOHH-2;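 also: growth inhibition of human DOHH-2 cells, read out with a cell viability assay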
Description: SANGER: Inhibition of human DOHH-2 cell growth in a cell viability assay.

[6] = system: EC-GI-10; conditions: Homo sapiens, EC-GI-10
Description: SANGER: Inhibition of human EC-GI-10 cell growth in a cell viability assay.

[7] = system: ES1; conditions: Homo sapiens, ES1;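 also: growth inhibition of ES1 cells, read out with a cell viability assay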
Description: SANGER: Inhibition of human ES1 cell growth in a cell viability assay.

[8] = system: ES4; conditions: Homo sapiens, ES4;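 also: growth inhibition of human ES4 cells, read out by a cell viability assay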
Description: SANGER: Inhibition of human ES4 cell growth in a cell viability assay.

[9] = system: ETK-1; conditions: Homo sapiens, ETK-1;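 also: growth inhibition of human ETK-1 cells, read out with a cell viability assay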
Description: SANGER: Inhibition of human ETK-1 cell growth in a cell viability assay.

[10] = system: GAK; conditions: Homo sapiens, GAK;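 also: cell growth inhibition read out by a cell viability assay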
Description: SANGER: Inhibition of human GAK cell growth in a cell viability assay.

[11] = system: HL-60; conditions: Homo sapiens, HL-60;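 also: growth inhibition of human HL-60 cells, read out with a cell viability assay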
Description: SANGER: Inhibition of human HL-60 cell growth in a cell viability assay.

[12] = system: HT; conditions: Homo sapiens, HT
Description: SANGER: Inhibition of human HT cell growth in a cell viability assay.

[13] = system: JVM-2; conditions: Homo sapiens, JVM-2;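 also: growth inhibition of JVM-2 cells determined by a cell viability assay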
Description: SANGER: Inhibition of human JVM-2 cell growth in a cell viability assay.

[14] = system: KLE; conditions: Homo sapiens, KLE;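 also: growth inhibition of human KLE cells, read out with a cell viability assay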
Description: SANGER: Inhibition of human KLE cell growth in a cell viability assay.

[15] = system: L-363; conditions: Homo sapiens, L-363
Description: SANGER: Inhibition of human L-363 cell growth in a cell viability assay.

[16] = system: LB1047-RCC; conditions: Homo sapiens, LB1047-RCC;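 also: inhibition of cell growth, determined with a cell viability assay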
Description: SANGER: Inhibition of human LB1047-RCC cell growth in a cell viability assay.

[17] = system: LS-123; conditions: Homo sapiens, LS-123
Description: SANGER: Inhibition of human LS-123 cell growth in a cell viability assay.

[18] = system: MMAC-SF; conditions: Homo sapiens, MMAC-SF;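 also: growth inhibition of human MMAC-SF cells, read out with a cell viability assay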
Description: SANGER: Inhibition of human MMAC-SF cell growth in a cell viability assay.

[19] = system: MN-60; conditions: Homo sapiens, MN-60;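 also: growth inhibition of the MN-60 cell line, determined with a cell viability assay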
Description: SANGER: Inhibition of human MN-60 cell growth in a cell viability assay.

[20] = system: MZ1-PC; conditions: Homo sapiens, MZ1-PC;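 also: cell viability assay measuring growth inhibition of human MZ1-PC cells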
Description: SANGER: Inhibition of human MZ1-PC cell growth in a cell viability assay.

[21] = system: NB12; conditions: Homo sapiens, NB12;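 also: growth inhibition of human NB12 cells, read out by a cell viability assay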
Description: SANGER: Inhibition of human NB12 cell growth in a cell viability assay.

[22] = system: NB5; conditions: Homo sapiens, NB5;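 also: growth inhibition of NB5 cells, read out as cell viability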
Description: SANGER: Inhibition of human NB5 cell growth in a cell viability assay.

[23] = system: NB6; conditions: Homo sapiens, NB6;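 also: growth inhibition of NB6 cells, read out by a cell viability assay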
Description: SANGER: Inhibition of human NB6 cell growth in a cell viability assay.

[24] = system: NCI-H1092; conditions: Homo sapiens, NCI-H1092;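 also: cell growth inhibition measured with a cell viability assay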
Description: SANGER: Inhibition of human NCI-H1092 cell growth in a cell viability assay.

[25] = system: NCI-H1155; conditions: Homo sapiens, NCI-H1155;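 also: cell growth inhibition measured by a viability assay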
Description: SANGER: Inhibition of human NCI-H1155 cell growth in a cell viability assay.

[26] = system: NCI-H1299; conditions: Homo sapiens, NCI-H1299;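 also: growth inhibition of human NCI-H1299 cells, read out by a cell viability assay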
Description: SANGER: Inhibition of human NCI-H1299 cell growth in a cell viability assay.

[27] = system: NCI-H1581; conditions: Homo sapiens, NCI-H1581;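 also: cell growth inhibition read out by a viability assay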
Description: SANGER: Inhibition of human NCI-H1581 cell growth in a cell viability assay.

[28] = system: NCI-H209; conditions: Homo sapiens, NCI-H209;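 also: growth inhibition of human NCI-H209 cells, measured by a cell viability assay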
Description: SANGER: Inhibition of human NCI-H209 cell growth in a cell viability assay.

[29] = system: NCI-H69; conditions: Homo sapiens, NCI-H69;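 also: growth inhibition of the cell line, read out with a cell viability assay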
Description: SANGER: Inhibition of human NCI-H69 cell growth in a cell viability assay.

[30] = system: NH-12; conditions: Homo sapiens, NH-12;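 also: growth inhibition of NH-12 cells, read out with a cell viability assay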
Description: SANGER: Inhibition of human NH-12 cell growth in a cell viability assay.

[31] = system: NMC-G1; conditions: Homo sapiens, NMC-G1;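 also: growth inhibition of the NMC-G1 cell line, measured with a cell viability read-out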
Description: SANGER: Inhibition of human NMC-G1 cell growth in a cell viability assay.

[32] = system: RPMI-8866; conditions: Homo sapiens, RPMI-8866
Description: SANGER: Inhibition of human RPMI-8866 cell growth in a cell viability assay.

[33] = system: RXF 393; conditions: Homo sapiens, RXF 393;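 also: growth inhibition of human RXF 393 cells, read out with a cell viability assay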
Description: SANGER: Inhibition of human RXF393 cell growth in a cell viability assay.

[34] = system: SBC-1; conditions: Homo sapiens, SBC-1;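 also: cell viability assay measuring growth inhibition of the SBC-1 cell line, IC50 being the concentration that halves growth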
Description: SANGER: Inhibition of human SBC-1 cell growth in a cell viability assay.

[35] = system: SF-268; conditions: Homo sapiens, SF-268;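 also: growth inhibition of SF-268 cells determined with a cell viability assay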
Description: SANGER: Inhibition of human SF268 cell growth in a cell viability assay.

[36] = system: SK-MEL-1; conditions: Homo sapiens, SK-MEL-1;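 also: growth inhibition of human SK-MEL-1 cells, read out by a cell viability assay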
Description: SANGER: Inhibition of human SK-MEL-1 cell growth in a cell viability assay.

[37] = system: SW684; conditions: Homo sapiens, SW684;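 also: growth inhibition of human SW684 cells, measured by a cell viability assay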
Description: SANGER: Inhibition of human SW684 cell growth in a cell viability assay.

[38] = system: BV-173; conditions: Homo sapiens, BV-173
Description: SANGER: Inhibition of human BV-173 cell growth in a cell viability assay.

[39] = system: C8166; conditions: Homo sapiens, C8166;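 also: growth inhibition of human C8166 cells measured by a cell viability assay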
Description: SANGER: Inhibition of human C8166 cell growth in a cell viability assay.

[40] = system: TE-10; conditions: Homo sapiens, TE-10;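 also: growth inhibition of TE-10 cells, measured by a cell viability assay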
Description: SANGER: Inhibition of human TE-10 cell growth in a cell viability assay.

[41] = system: TE-5; conditions: Homo sapiens, TE-5;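 also: inhibition of cell growth, read out by a cell viability assay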
Description: SANGER: Inhibition of human TE-5 cell growth in a cell viability assay.

[42] = system: TE-9; conditions: Homo sapiens, TE-9;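 also: cell growth inhibition, measured with a cell viability readout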
Description: SANGER: Inhibition of human TE-9 cell growth in a cell viability assay.

[43] = system: TK-10; conditions: Homo sapiens, TK-10;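 also: growth inhibition of TK-10 cells, read out in a cell viability assay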
Description: SANGER: Inhibition of human TK10 cell growth in a cell viability assay.

[44] = system: UACC-257; conditions: Homo sapiens, UACC-257
Description: SANGER: Inhibition of human UACC-257 cell growth in a cell viability assay.

[45] = system: VA-ES-BJ; conditions: Homo sapiens, VA-ES-BJ;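 also: growth inhibition of the VA-ES-BJ cell line, read out by a cell viability assay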
Description: SANGER: Inhibition of human VA-ES-BJ cell growth in a cell viability assay.

[46] = system: no-11; conditions: Homo sapiens;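 also: growth inhibition of human NO-11 cells, read out with a cell viability assay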
Description: SANGER: Inhibition of human no-11 cell growth in a cell viability assay.

[47] = system: COLO-320-HSR; conditions: Homo sapiens, COLO-320-HSR;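 also: growth inhibition of COLO-320-HSR cells, determined with a cell viability assay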
Description: SANGER: Inhibition of human COLO-320-HSR cell growth in a cell viability assay.

Question: Which IC50 [1] does the source give for Nc1cccc2c1CN(C1CCC(=O)NC1=O)C2=O (centres undefined) [LENALIDOMIDE] here?
Answer: > 5 µM

Question: What about the IC50 [2] of the same compound?
Answer: > 5 µM

Question: And the IC50 [3]?
Answer: > 5 µM

Question: And the IC50 [4]?
Answer: > 5 µM

Question: What about the IC50 [5] of the same compound?
Answer: > 5 µM

Question: And the IC50 [6]?
Answer: > 5 µM

Question: And the IC50 [7]?
Answer: > 5 µM

Question: And the IC50 [8]?
Answer: > 5 µM

Question: What about the IC50 [9] of the same compound?
Answer: > 5 µM

Question: What about the IC50 [10] of the same compound?
Answer: > 5 µM

Question: And the IC50 [11]?
Answer: > 5 µM

Question: And the IC50 [12]?
Answer: > 5 µM

Question: What about the IC50 [13] of the same compound?
Answer: > 5 µM

Question: And the IC50 [14]?
Answer: > 5 µM

Question: What about the IC50 [15] of the same compound?
Answer: 2920 nM

Question: And the IC50 [16]?
Answer: > 5 µM

Question: What about the IC50 [17] of the same compound?
Answer: > 5 µM

Question: And the IC50 [18]?
Answer: > 5 µM

Question: What about the IC50 [19] of the same compound?
Answer: > 5 µM

Question: What about the IC50 [20] of the same compound?
Answer: > 5 µM

Question: And the IC50 [21]?
Answer: > 5 µM

Question: And the IC50 [22]?
Answer: > 5 µM

Question: And the IC50 [23]?
Answer: > 5 µM

Question: What about the IC50 [24] of the same compound?
Answer: > 5 µM

Question: And the IC50 [25]?
Answer: > 5 µM

Question: And the IC50 [26]?
Answer: > 5 µM

Question: What about the IC50 [27] of the same compound?
Answer: > 5 µM

Question: And the IC50 [28]?
Answer: > 5 µM

Question: What about the IC50 [29] of the same compound?
Answer: > 5 µM

Question: And the IC50 [30]?
Answer: > 5 µM

Question: And the IC50 [31]?
Answer: > 5 µM

Question: What about the IC50 [32] of the same compound?
Answer: > 5 µM

Question: And the IC50 [33]?
Answer: > 5 µM

Question: What about the IC50 [34] of the same compound?
Answer: > 5 µM

Question: What about the IC50 [35] of the same compound?
Answer: > 5 µM

Question: And the IC50 [36]?
Answer: > 5 µM

Question: And the IC50 [37]?
Answer: > 5 µM

Question: What about the IC50 [38] of the same compound?
Answer: > 5000 nM

Question: And the IC50 [39]?
Answer: > 5 µM

Question: And the IC50 [40]?
Answer: > 5 µM

Question: And the IC50 [41]?
Answer: > 5 µM

Question: And the IC50 [42]?
Answer: > 5 µM

Question: And the IC50 [43]?
Answer: > 5 µM

Question: And the IC50 [44]?
Answer: > 5 µM

Question: And the IC50 [45]?
Answer: > 5 µM

Question: What about the IC50 [46] of the same compound?
Answer: > 5 µM

Question: And the IC50 [47]?
Answer: > 5 µM

Question: Which results are given for Cc1cn(-c2cc(NC(=O)c3ccc(C)c(Nc4nccc(-c5cccnc5)n4)c3)cc(C(F)(F)F)c2)cn1 [NILOTINIB]?
Answer: IC50 [1]: > 2 µM; IC50 [2]: > 2 µM; IC50 [3]: > 2 µM; IC50 [4]: > 2 µM; IC50 [5]: > 2 µM; IC50 [6]: > 2 µM; IC50 [7]: > 2 µM; IC50 [8]: > 2 µM; IC50 [9]: > 2 µM; IC50 [10]: > 2 µM; IC50 [11]: > 2 µM; IC50 [12]: > 2 µM; IC50 [13]: > 2 µM; IC50 [14]: > 2 µM; IC50 [15]: > 2000 nM; IC50 [16]: > 2 µM; IC50 [17]: > 2 µM; IC50 [18]: > 2 µM; IC50 [19]: > 2 µM; IC50 [20]: > 2 µM; IC50 [21]: > 2 µM; IC50 [22]: > 2 µM; IC50 [23]: > 2 µM; IC50 [24]: > 2 µM; IC50 [25]: > 2 µM; IC50 [26]: > 2 µM; IC50 [27]: > 2 µM; IC50 [28]: > 2 µM; IC50 [29]: > 2 µM; IC50 [30]: > 2 µM; IC50 [31]: > 2 µM; IC50 [32]: > 2 µM; IC50 [33]: > 2 µM; IC50 [34]: > 2 µM; IC50 [35]: > 2 µM; IC50 [36]: > 2 µM; IC50 [37]: > 2 µM; IC50 [38]: 10.9 nM; IC50 [39]: > 2 µM; IC50 [40]: > 2 µM; IC50 [41]: > 2 µM; IC50 [42]: > 2 µM; IC50 [43]: > 2 µM; IC50 [44]: > 2 µM; IC50 [45]: > 2 µM; IC50 [46]: > 2 µM; IC50 [47]: > 2 µM
